For ten compounds, IC50 results are on record in patent US10131679B2, “Substituted dihydropyrrolopyrazole compound” (UBE INDUSTRIES, LTD., priority 2014, dated 2018).

This assay has as its system human breast cancer cell line (MCF-7). Put plainly: Human breast cancer (MCF-7) cell growth inhibition test. The format is cell-based. The note with it: MCF7, 72 h, MCF-7, culture for 3 days, sulforhodamine B absorbance. On the procedure:
Human Breast Cancer (MCF-7) Cell Growth Inhibition Test
The measurement of a human breast cancer cell growth inhibitory effect was carried out by modifying the method of Simak et al. (Cancer Research, 69, 6208 (2009)).
A human breast cancer cell line (MCF-7) manufactured by DS Pharma Biomedical Co., Ltd., Cat. No. EC86012803, was cultured in MEM (manufactured by GIBCO/Thermo Fisher Scientific, Inc., REF. 11095-080) medium containing 10% FBS (manufactured by GIBCO/Thermo Fisher Scientific, Inc., REF. 10082-147), nonessential amino acids (manufactured by GIBCO/Thermo Fisher Scientific, Inc., REF. 11140-050), and 1% penicillin/streptomycin/amphotericin B (manufactured by GIBCO/Thermo Fisher Scientific, Inc., REF. 15240-096) and inoculated at 3.0×10^3 cells/well to a 96-well plate (manufactured by Corning Inc., REF. 353072). After overnight culture in a carbon dioxide incubator, it was replaced with a fresh MEM medium containing 10% FBS, nonessential amino acids, and 1% penicillin/streptomycin/amphotericin B on the next day, and a test compound dissolved in DMSO (manufactured by Wako Pure Chemical Industries, Ltd., Code No. 043-07216) (final DMSO concentration: 0.1%) was added and left standing in a carbon dioxide incubator. After culture for 3 days, the absorbance of each well was measured by using In Vitro Toxicology Assay Kit Sulforhodamine B based (manufactured by Sigma-Aldrich Co. LLC., Pcode 1001910706).
The rate of inhibition of cell growth at each concentration was calculated from the test compound concentration and the absorbance of sulforhodamine B, and the concentration of the test compound necessary for inhibiting 50% of cell growth (IC50 value) was calculated by using EXSUS (version 8.0.0 or version 8.0.1, manufactured by CAC Exicare Corp.).
In turn, `COC[C@@H](NC(=O)N1Cc2c(NC(=O)C3([Si](C)(C)C)CCC3)n[nH]c2C1(C)C)c1ccccc1` [IV-123, (S)—N-(2-Methoxy-1-phenylethyl)-6,6-dimethyl-3-[1-(trimethylsilyl)cyclobutanecarboxamido]-4,6-dihydropyrrolo[3,4-c]pyrazole-5(1H)-carboxamide] registered an IC50 of no more than 0.5 µM.

`CC(C)[C@@H](CO)NC(=O)N1Cc2c(NC(=O)C3([Si](C)(C)C)CCC3)n[nH]c2C1(C)C` [IV-475, (S)—N-(1-Hydroxy-3-methylbutan-2-yl)-6,6-dimethyl-3-[1-(trimethylsilyl)cyclobutanecarboxamido]-4,6-dihydropyrrolo[3,4-c]pyrazole-5(1H)-carboxamide] registered an IC50 of no more than 0.5 µM.

`CC[Si](C)(C)C1(C(=O)Nc2n[nH]c3c2CN(C(=O)N[C@H](CO)c2ccccc2)C3(C)C)CCC1` [IV-117, (S)-3-[1-(Ethyldimethylsilyl)cyclobutanecarboxamido]-N-(2-hydroxy-1-phenylethyl)-6,6-dimethyl-4,6-dihydropyrrolo[3,4-c]pyrazole-5(1H)-carboxamide] gave an IC50 of no more than 0.5 µM.

In turn, `CC1(C)c2[nH]nc(NC(=O)C3([Si](C)(C)C)CCC3)c2CN1C(=O)NCCO` [IV-438, N-(2-Hydroxyethyl)-6,6-dimethyl-3-[1-(trimethylsilyl)cyclobutanecarboxamido]-4,6-dihydropyrrolo[3,4-c]pyrazole-5(1H)-carboxamide] came in with an IC50 of no more than 0.5 µM.

In the case of `C[C@@H](CO)NC(=O)N1Cc2c(NC(=O)C3([Si](C)(C)C)CCC3)n[nH]c2C1(C)C` [IV-455, (S)—N-(1-Hydroxypropan-2-yl)-6,6-dimethyl-3-[1-(trimethylsilyl)cyclobutanecarboxamido]-4,6-dihydropyrrolo[3,4-c]pyrazole-5(1H)-carboxamide], the IC50 is no more than 0.5 µM.

`CC1(C)c2[nH]nc(NC(=O)C3([Si](C)(C)C)CCC3)c2CN1C(=O)N[C@H](CO)C1CCCCC1` [IV-495, (S)—N-(1-Cyclohexyl-2-hydroxyethyl)-6,6-dimethyl-3-[1-(trimethylsilyl)cyclobutanecarboxamido]-4,6-dihydropyrrolo[3,4-c]pyrazole-5(1H)-carboxamide]: the IC50 is no more than 0.5 µM.

`CC1(C)c2[nH]nc(NC(=O)C3([Si](C)(C)C)CCC3)c2CN1C(=O)N[C@H](CCCCO)c1ccccc1` [IV-291, (R)—N-(5-Hydroxy-1-phenylpentyl)-6,6-dimethyl-3-[1-(trimethylsilyl)cyclobutanecarboxamido]-4,6-dihydropyrrolo[3,4-c]pyrazole-5(1H)-carboxamide] displayed an IC50 of no more than 0.5 µM.

In the case of `CC1(C)c2[nH]nc(NC(=O)C3([Si](C)(C)C)CCC3)c2CN1C(=O)N[C@H](CO)c1ccccc1` [IV-114, (S)—N-(2-Hydroxy-1-phenylethyl)-6,6-dimethyl-3-[1-(trimethylsilyl)cyclobutanecarboxamido]-4,6-dihydropyrrolo[3,4-c]pyrazole-5(1H)-carboxamide], the IC50 was no more than 0.5 µM.

Regarding `CC(C)(O)[C@@H](NC(=O)N1Cc2c(NC(=O)C3([Si](C)(C)C)CCC3)n[nH]c2C1(C)C)c1ccccc1` [IV-171, (S)—N-(2-Hydroxy-2-methyl-1-phenylpropyl)-6,6-dimethyl-3-[1-(trimethylsilyl)cyclobutanecarboxamido]-4,6-dihydropyrrolo[3,4-c]pyrazole-5(1H)-carboxamide], the IC50 is no more than 0.5 µM.

`CC1(C)c2[nH]nc(NC(=O)C3([Si](C)(C)C)CCC3)c2CN1C(=O)N[C@H](CCO)c1ccccc1` [IV-227, (R)—N-(3-Hydroxy-1-phenylpropyl)-6,6-dimethyl-3-[1-(trimethylsilyl)cyclobutanecarboxamido]-4,6-dihydropyrrolo[3,4-c]pyrazole-5(1H)-carboxamide] yielded an IC50 of no more than 0.5 µM.
